Earlier results, collected in US20190021385A1, “ORALLY DISSOLVABLE COMPOSITIONS FOR NUTRITION SUPPLEMENTATION” (Exeltis USA, Inc., priority 2017, published 2019).

Details: intake of about 1000 IU per day, all adults; Bischoff-Ferrari 2008

Question: For C=C1CC[C@H](O)C/C1=C/C=C1\CCC[C@]2(C)[C@@H]([C@H](C)CCCC(C)C)CC[C@@H]12 [vitamin D3, cholecalciferol], which “share of the population brought up to the 30 ng/ml serum range for 25-hydroxyvitamin D” value is on record?
Answer: at least 50%
